From patent US7605227B2, “Melanoma antigen peptide analogues” (MannKind Corporation, priority 2005, dated 2009) come the findings set out here.

The subject of one experiment is 624.38 melanoma cells. As to the kind of experiment: Plasmid prime, SSX-2 peptide boost, ex vivo cytotoxicity against human tumor cells. It counts as in vivo, mice. As to conditions: ex vivo after boost. On the procedure:
Eight groups of mice (n=4) were immunized with plasmid expressing SSX-241-49 natural epitope by direct inoculation into the inguinal lymph nodes with 25 μg in 25 μl of PBS/each lymph node at day 0, 3, 14 and 17. This was followed by two additional peptide boosts (similar amount) at day 28 and 31, using a negative control peptide (Melan A 26-35 “EAA”), natural peptide or analogs as shown in FIG. 9.

For experiment [1], the system named is T cell lines against a natural (non-mutated) epitope (SSX-241-49). The experiment in a line: Cross-reactivity and functional avidity: IFN-gamma from T cell lines against natural SSX-2 41-49 epitope.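 Also: peptide analogs tested ex vivo with competent APCs, IFN-gamma in supernatant measured by ELISA, readouts include minimal triggering concentration, peak effect and concentration at peak.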 It counts as cell-based, HHD transgenic mice. As to conditions: IFN-gamma from T cell line raised against native SSX-2 41-49; native = 1, lower = more active.
Experiment [2] relates to 51Cr-labeled target cells (T2 cells). The experiment in a line: Plasmid prime, SSX-2 peptide boost, ex vivo 51Cr cytotoxicity against T2 target cells. It counts as in vivo, mice. To be noted: peptide as boost agent after plasmid; 51Cr T2 targets. As to the method: Three groups of mice (n=4) were immunized with a plasmid expressing SSX-241-49 natural epitope by direct inoculation into the inguinal lymph nodes with 25 μg in 25 μl of PBS/each lymph node at day 0, 3, 14 and 17. This was followed by two additional peptide boosts (similar amount) at day 28 and 31. One week after the boost, splenocytes were stimulated ex vivo with SSX-241-49 natural peptide and tested against ^51Cr-labeled target cells (T2 cells) at various E:T ratios (FIG. 8). […] This correlated with the binding and stability parameters determined by ex vivo experimentation.

Experiment [3] relates to target cells coated with natural peptide. As to the kind of experiment: Plasmid prime, SSX-2 peptide boost, in vivo cytotoxicity (CFSE). Set-up: species or system HHD mice. As to conditions: spleen and blood; targets coated with 20 μg/ml and 1 μg/ml natural peptide. As to the method: Eight groups of mice (n=4) were immunized with plasmid expressing SSX-241-49 natural epitope, by direct inoculation into the inguinal lymph nodes with 25 μg in 25 μl of PBS/each lymph node at day 0, 3, 14 and 17. This was followed by two additional peptide boosts (similar amount) at day 28 and 31, using a negative control peptide (Melan A 26-35 “EAA”), natural peptide or analogs as shown in FIG. 9.
To evaluate the in vivo response against natural peptide, splenocytes were isolated from littermate control HHD mice and incubated with 20 μg/mL or 1 μg/ml of natural peptide for 2 hours. These cells were then stained with CFSE^hi fluorescence (4.0 μM or 1 μM for 15 minutes) and intravenously co-injected into immunized mice with an equal number of control splenocytes stained with CFSE^lo fluorescence (0.4 μM). Eighteen hours later the specific elimination of target cells was measured by removing spleen and PBMC from challenged animals and measuring CFSE fluorescence by flow cytometry. The relative depletion of the populations corresponding to peptide loaded splenocytes was calculated relative to the control (unloaded) population and expressed as % specific lysis. FIGS. 10 (spleen) and 11 (blood) show the in vivo cytotoxicity elicited by the regimens described in FIG. 7.

The next experiment relates to PSMA+ A2+ LnCap cells. As to the kind of experiment: PSMA immunization, ex vivo cytotoxicity against human tumor cells. It counts as in vivo, HHD transgenic mice. As to the method:
HHD transgenic mice (n=4) were immunized with PSMA288-297 peptide (25 μg in 25 μl of PBS, plus 12.5 μg of pI:C to each lymph node) at day 0, 3, 14 and 17. One week after the boost, splenocytes were stimulated ex vivo with the native PSMA288-297 peptide and tested against ^51Cr-labeled human tumor cells (PSMA^+ A2^+ LnCap cells, or as negative control, LnCap cells coated with MHC class I-blocking antibody) at various E:T ratios.
HHD transgenic mice (n=4) were immunized with plasmid expressing the PSMA288-297 epitope by direct inoculation into the inguinal lymph nodes with 25 μg in 25 μl of PBS to each lymph node at day 0, 3, 14 and 17. This was followed by two peptide boosts (same amount) at day 28 and 31, with the analog I297V. One week after the boost, splenocytes were stimulated ex vivo with the native PSMA288-297 peptide and tested overnight against ^51Cr-labeled human tumor cells (Lncap, A2^+ PSMA^+; or 624.38 A2^+ PSMA^− or control 624.28 cells A2^− PSMA^−) at various E:T ratios.

Experiment [4] relates to T cells that recognized native PSMA288-297 peptide. As to the kind of experiment: Peptide immunization with PSMA analogs, IFN-gamma ELISPOT against native peptide. As to conditions: peptide + pI:C intranodal immunization. It counts as in vivo, HHD transgenic mice. On the procedure: Groups of HHD transgenic mice (n=8) were immunized with peptide (natural epitope PSMA288-297, or analogs bearing substitutions at primary or secondary anchor residues) by direct inoculation into the inguinal lymph nodes, with 25 μg in 25 μl of PBS+12.5 μg of pI:C to each lymph node at day 0, 3, 14 and 17.
Mice were sacrificed at 10 days after the last boost, and splenocytes prepared and assessed for IFN-γ production by ELISPOT analysis. […] At 48 hours after incubation, the assay was developed and the frequency of cytokine-producing T cells that recognized native PSMA288-297 peptide was automatically counted. The data is represented in FIG. 22 as the number of spot forming colonies/well (mean of triplicates±SD). […] To the extent that the poor immunogenicity of the native epitope reflects tolerance, the improved activity of these analogs represents tolerance breaking.

Experiment [5] concerns T cells that recognized the PSMA288-297 peptide. As to the kind of experiment: Plasmid prime, PSMA peptide boost, IFN-gamma ELISPOT. It counts as in vivo, HHD transgenic mice. To be noted: versus natural peptide boost. As to the method:
Two groups of HHD transgenic mice (n=8) were immunized with plasmid expressing PSMA288-297 by direct inoculation into the inguinal lymph nodes with 25 μg in 25 μl of PBS to each lymph node at day 0, 3, 14 and 17. This was followed by two peptide boosts (25 μg) at day 28 and 31 with either the natural peptide or the I297V analog.
Mice were sacrificed at 10 days after the last boost, and splenocytes prepared and assessed for IFN-γ production by ELISPOT analysis. […] At 48 hours after incubation, the assay was developed and the frequency of cytokine-producing T cells that recognized the PSMA288-297 peptide was automatically counted. The data is represented in FIG. 23 as frequency of specific T cells normalized to 0.5 million responder cells (mean of triplicates+SD).

The test system of experiment [6] is T cells specific for the wild-type NY-ESO-1157-165 epitope. As to the kind of experiment: Cross-reactivity and functional avidity of NY-ESO-1 157-165 analogs (IFN-gamma). It counts as cell-based, HHD transgenic mice. The text has this: A methodology was devised to allow rapid and rational screening of peptide analogs in a fashion coherent with proposed methods of use and modeling the overall immunologic properties (Kon and Koff relative to MHC interaction and TCR binding properties in an integrated fashion). In some instances, the method included generating T cell lines against a natural (non-mutated) epitope (SSX-241-49), and using an immunization strategy potent enough to generate a useful response in transgenic mice carrying human MHC (such as the A2 allele). Peptide analogs were interrogated ex vivo in the presence of competent APCs and the functional impact of T cells specific for natural (non-mutated) epitopes measured. The evaluation was done at various concentrations of analog, because the expected effect was biphasic in the case of cross reactive peptides (activating at limited concentrations and inhibiting at higher concentrations, due to antigen-induced cell death, AICD). Measurement of the following three parameters were used to define basic and useful characteristics of peptide analogs: • 1. […]
At 7 days after the last boost, the mice were sacrificed and a suspension of splenocytes prepared at 5×10^6 […] cells/ml in complete HL-1 medium. […] The supernatant was harvested and the concentration of IFN-gamma assessed by standard methods such as ELISA. […]

In a further experiment the target is HLA-A*0201 (Homo sapiens, UniProt P04439, D140Y/D185E/D98H/E176V/E277Q/G131W/G231S/I119V/I121R/I166T/I218V/L300P/L318F/N151K/N90K/P208A/P217A/Q86G/Q94H/R138H/R169H/T345S). The experiment in a line: iTopia off-rate assay (T1/2). It counts as binding. As to conditions: PRAME425-433 and analogs.
The test system of experiment [7] is native epitope coated cells. The experiment in a line: pCTLR2 prime, PRAME peptide boost, in vivo cytotoxicity (CFSE). More on the design: species or system HHD transgenic mice.
A further experiment concerns 624.38 cells. The experiment in a line: pSEM prime, Tyrosinase peptide boost, ex vivo cytotoxicity against human tumor cells. It counts as in vivo, HHD transgenic mice. On the procedure:
HHD transgenic mice (n=4/group) were immunized (according to the general protocol in FIG. 40) with plasmid (pSEM) expressing the Tyrosinase369-377 epitope by direct inoculation into the inguinal lymph nodes of 25 μg of plasmid in 25 μl of PBS per lymph node at day 0, 3, 14 and 17. […] One week after the boost, splenocytes were stimulated ex vivo with the native Tyrosinase369-377 peptide and assayed against ^51Cr-labeled human tumor cells (624.38 cells) at various E:T ratios. […] Together with the preceding example, this observation illustrates the usefulness of complementing more stringent assays (in vivo cytotoxicity and tetramer staining) with more sensitive assays (ex vivo cytotoxicity after in vitro stimulation) to outline potentially useful analogs.

“Also recorded” adds a separate entry of the source. Square brackets hold non-standard residues; d marks the D form. Ends that are not written are not given here. Nva = CCC[C@H](N)C(=O)O

Description for HLA-A*0201: Avidin-coated microtiter plates containing class I monomer loaded with a so-called placeholder peptide were used to evaluate peptide binding, affinity and off-rate. […] Assay buffers, anti-MHC-FITC mAb and beta2-microglobulin and control peptides were also supplied with the kits.
The plates were then incubated on the allele-specific monomer plates at 37° C. The plates were measured at multiple time points (0, 0.5, 1, 1.5, 2, 4, 6 and 8 hrs) for relative fluorescence intensity. The time required for 50% of the peptide to dissociate from the MHC monomer is defined as the T1/2 value (hrs).
The binding and offrate (T1/2) was determined for six native epitopes and their analogs which were designed to enhance the immune response.

For `CC[C@H](C)[C@H](NC(=O)[C@H](CCCCN)NC(=O)[C@H](CCC(=O)O)NC(=O)[C@H](CO)NC(=O)[C@@H](NC(=O)[C@@H](N)CCCCN)C(C)C)C(=O)N[C@@H](Cc1ccccc1)C(=O)N[C@@H](Cc1ccc(O)cc1)C(=O)N[C@H](C(=O)O)C(C)C` [SSX2 41-49 (A42V)], the “cytotoxicity against human tumor cells, in words” value in the experiment with 624.38 melanoma cells is recorded as “increased cytotoxicity against human tumor cells”. Further, the “Cross-reactivity and fct avidity (native to analogs)*” value in experiment [1] came to 0.03. For the same compound, the “response against target cells expressing the natural peptide” value in experiment [2] is “higher response against target cells expressing the natural peptide”. Further, the “in vivo cytotoxicity (% specific lysis), in words” value in experiment [3] is “increased activity relative to the natural peptide”.
On to GLPSIPVHPV [PSMA 288-297(I297V)], for which the “ex vivo cytotoxicity against PSMA+ human tumor cells, in words” value in the experiment with PSMA+ A2+ LnCap cells is listed as “cytotoxic immunity against a PSMA^+ human tumor line; also recorded: effective in mediating cytotoxicity against LNCAP”. In addition, the “IFN-γ ELISPOT response against native epitope, in words” value in [4] is “increased priming of immune responses against the native epitope”. For the same compound, the “frequency of native epitope-specific T cells (ELISPOT), in words” value in [5] is “considerably higher”.
On to “L158V: NY-ESO-1 157-165 analog with V for L at position 158 (SVLMWITQC; UniProt P78358 157-165, looked up, variant L158V) [Peptide L158V]”, for which the “cross-reactivity / activity relative to wild-type, in words” value in experiment [6] is reported as “partial retention of activity”.
As for “S425F: PRAME425-433 analog with Phe for Ser at P1 (FLLQHLIGL) [Peptide S425F]”, in the experiment with HLA-A*0201, the “half time of dissociation” value turned out to be 17.7 h. In addition, the “in vivo cytotoxicity against native epitope, in words” value in [7] is on record as “capable of expanding the immunity against the native epitope”.
Turning to “YMDGTMSQV [Tyrosinase 369-377, reference compound]”, the “ex vivo cytotoxicity against 624.38 cells, in words” value in the experiment on 624.38 cells was “robust cytotoxicity against 624.38 cells”.
Regarding “YVDGTMSQNva (YVDGTMSQ[Nva]) [M370V V377Nva]”, in the experiment with 624.38 cells, the “ex vivo cytotoxicity against 624.38 cells, in words” value was “robust cytotoxicity against 624.38 cells”.
